As usually defined, the IC50 is the concentration at which inhibition is half-maximal. A lower IC50 goes with greater potency. A word on the CC50: it is the concentration that lowers cell viability or growth by half. Broadly, the EC50 is the concentration at which the effect is half-maximal.

Molecules are shown by their SMILES. Where only a bound is given, the exact number is not on record here.

Data set [1] has as its target T1, Human immunodeficiency virus type 1 integrase (Human immunodeficiency virus 1, UniProt Q7ZJM1).
Description: Inhibition of HIV1 integrase
The nature of data set [2]: Cytotoxicity against human MT4 cells. In kind it is cell-based.
Data set [3] in a line: Selectivity index, ratio of CC50 for human MT4 cells to EC50 for HIV1 3B. In kind it is functional.
Data set [4] has as its system Human immunodeficiency virus 1. In words: Antiviral activity against HIV1 3B assessed as inhibition of viral-induced cytopathic effect in human MT4 cells. In kind it is functional, organism-based. To be noted: Human immunodeficiency virus 1, 3B. Background: Cytopathic effects are the visible damage that an infection or toxin causes in cultured cells.
Data set [5] deals with T1, Human immunodeficiency virus type 1 integrase. This is another data set of the same source.
Description: Inhibition of HIV1 integrase strand transfer activity

T1 sequence (Q7ZJM1 whole entry): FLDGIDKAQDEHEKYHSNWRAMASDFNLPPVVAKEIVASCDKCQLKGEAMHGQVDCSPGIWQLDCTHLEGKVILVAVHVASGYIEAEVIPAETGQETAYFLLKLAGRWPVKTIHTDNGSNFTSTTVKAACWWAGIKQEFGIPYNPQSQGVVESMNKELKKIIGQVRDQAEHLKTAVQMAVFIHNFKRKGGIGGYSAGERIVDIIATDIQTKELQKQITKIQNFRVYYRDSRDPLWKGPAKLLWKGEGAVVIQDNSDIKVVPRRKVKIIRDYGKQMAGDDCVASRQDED

For `COc1ccc2c(C(=O)/C=C(\O)C(=O)O)cn(Cc3ccc(F)cc3)c2c1`, the values for the IC50 in data set [1] and in data set [5] were 0.19 µM and 0.22 µM, respectively. This compound came in with a CC50 in data set [2] of 66 µM. Moreover, the “Ratio CC50/EC50” value in data set [3] worked out at 8. The EC50 in data set [4] is 8.39 µM.

On to `CCOC(=O)/C(O)=C/C(=O)c1cn(Cc2ccc(F)cc2)c2ccc(OC)cc12`, for which the results for the IC50 in data set [1] and in data set [5] were 4.6 µM and 7.55 µM, respectively. Besides, the CC50 in data set [2] was determined as 126 µM. Also, the “Ratio CC50/EC50” value in data set [3] is on record as 11. Further, in data set [4], the EC50 was determined as 11.5 µM.

Regarding `CCOC(=O)/C(O)=C/C(=O)c1cn(Cc2ccc(F)cc2)c2c(OC)ccc(OC)c12`, the half-inhibitory concentration (IC50) came out at 1.24 µM in data set [1] and 0.66 µM in data set [5]. Moreover, half-maximal cytotoxicity in data set [2] (CC50) was put at 81.1 µM. For the same compound, in data set [3], the “Ratio CC50/EC50” value came out at 20. For the same compound, the EC50 in data set [4] was 4.09 µM.

Regarding `COc1cccc2c1c(C(=O)/C=C(\O)C(=O)O)cn2Cc1ccc(F)cc1`, the IC50 in data set [1] amounted to 0.08 µM; in data set [5], 0.14 µM. In data set [2], this compound yielded a CC50 of 41.1 µM. The “Ratio CC50/EC50” value in data set [3] was 70.

For the compound `COc1cccc2c(C(=O)/C=C(\O)C(=O)O)cn(Cc3ccc(F)cc3)c12`, the IC50 in data set [1] amounted to 0.27 µM; in data set [5], 0.19 µM. In data set [2], this compound showed a CC50 of 82.9 µM. Also, the “Ratio CC50/EC50” value in data set [3] is 12. Also, the concentration for a half-maximal effect (EC50) in data set [4] was 7.04 µM.

For the compound `Cc1nnc(C(=O)NC(C)(C)c2nc(C(=O)NCc3ccc(F)cc3)c(O)c(=O)n2C)o1`, the CC50 in data set [2] was > 18 µM. Besides, the EC50 in data set [4] is 0.013 µM.

As for `CCOC(=O)/C(O)=C/C(=O)c1cn(Cc2ccc(F)cc2)c2c(OC)cccc12`, the IC50 in data set [1] is 4.76 µM; in data set [5], 2.64 µM. In addition, the CC50 in data set [2] is > 100 µM. In data set [4], the EC50 was > 100 µM.

In data set [2], `COc1cc2c(cc1Cc1cccc(Cl)c1F)c(=O)c(C(=O)O)cn2[C@H](CO)C(C)C` gave a CC50 of 2.12 µM. The EC50 in data set [4] amounted to 0.0008 µM.

On to `CCOC(=O)/C(O)=C/C(=O)c1cn(Cc2ccc(F)cc2)c2cc(OC)ccc12`, for which the IC50 came out at 1.96 µM in data set [1] and 2.34 µM in data set [5]. The compound also had a CC50 in data set [2] of 100 µM. For the same compound, the “Ratio CC50/EC50” value in data set [3] was <1. The half-maximal effective concentration (EC50) in data set [4] was > 100 µM.

On to `CCOC(=O)/C(O)=C/C(=O)c1cn(Cc2ccc(F)cc2)c2cccc(OC)c12`, for which the figures for the IC50 in data set [1] and in data set [5] were 86.1 µM and 92.3 µM, respectively. Moreover, half-maximal cytotoxicity in data set [2] (CC50) was put at 74 µM. Also, the “Ratio CC50/EC50” value in data set [3] stood at 24. Further, in data set [4], the EC50 was found to be 3.17 µM.

In the case of `COc1ccc2c(c1)c(C(=O)/C=C(\O)C(=O)O)cn2Cc1ccc(F)cc1`, the results for the IC50 in data set [1] and in data set [5] were 0.3 µM and 0.27 µM, respectively. The same compound registered a CC50 in data set [2] of 63.6 µM. Besides, the “Ratio CC50/EC50” value in data set [3] is listed as 12. For the same compound, the EC50 in data set [4] was 5.63 µM.

`COc1ccc(OC)c2c1c(C(=O)/C=C(\O)C(=O)O)cn2Cc1ccc(F)cc1`: the results for the IC50 in data set [1] and in data set [5] were 0.06 µM and 0.03 µM, respectively. Besides, in data set [2], the CC50 is 213 µM. For the same compound, in data set [3], the “Ratio CC50/EC50” value was 100. Besides, the EC50 in data set [4] was determined as 2.13 µM.

On to `O=C(O)/C(O)=C/C(=O)c1cn(Cc2ccc(F)cc2)c2ccccc12`, for which the 50% inhibitory concentration (IC50) is 0.86 µM in data set [1] and 2.33 µM in data set [5]. The CC50 in data set [2] is 64.1 µM. Further, the “Ratio CC50/EC50” value in data set [3] is reported as 8. In data set [4], the EC50 stood at 8.35 µM.

For the origin of these results see ChEMBL document CHEMBL1145615, “A refined pharmacophore model for HIV-1 integrase inhibitors: Optimization of potency in the 1H-benzylindole series” (Bioorg Med Chem Lett, 2008).
